Assay [1] has as its system human GLP-1R A316T versus WT. Kind of assay: Insulin secretion assay in mouse islets. The conditions noted are these: HFHS-fed mouse islets; 11 mM glucose + 100 nM; fig. S6I. Format: cell-based. As for the experimental part:
Purified mouse islets used for insulin secretion assays were treated in 24-well nonadherent plates. Eight islets were used per replicate with three technical replicates per condition. For acute studies, islets were preincubated for 1 hour in KRBH buffer containing 0.1% (w/v) bovine serum albumin (BSA) (10775835001, Roche) and 3 mM glucose before incubation with 11 mM glucose ± 100 nM GLP-1RAs or the GLP-1R antagonist exendin-9 in KRBH buffer in a shaking 37°C water bath (80 rpm) for 1 hour. For overnight studies, preincubation was carried out in RPMI 1640 medium containing FBS, P/S, and 3 mM glucose, followed by treatment with medium supplemented with 11 mM glucose ± GLP-1RAs for 16 hours. Supernatants containing secreted insulin were collected, centrifuged at 1000 rpm for 1 min, and transferred to fresh tubes. For total insulin content, islets were lysed using acidic ethanol (75% ethanol, 1.5 mM HCl). Lysates were sonicated 3× 10 s each in a water bath and centrifuged at 10,000g for 10 min, and supernatants were collected. For human islets, the same experiment was performed with islets previously transduced with pAV-SNAP/FLAG-hGLP1R^WT or ^A316T adenoviruses (generated by VectorBuilder) at a multiplicity of infection of 1, 24 hours before the start of experiments. Insulin secretion assays with the human EndoC-βH3 cell line were performed following 3 weeks of treatment with 4-hydroxytamoxifen as above, followed by transduction with pAV-SNAP/FLAG-hGLP1R^WT or ^A316T adenoviruses, with insulin secretion assessed as previously described ([54]), with the following modifications: After preincubation with 0.5 mM glucose KRBH buffer, cells were stimulated with 15 mM glucose ± exendin-4 for 60 min. Total and secreted insulin samples from islets and cells were stored at −20°C until quantification using an Insulin Ultra-Sensitive HTRF kit (#62IN2PEG, Revvity) in a PHERAstar plate reader (BMG Labtech), according to the manufacturer’s instructions.

Assay [2] deals with INS-1 832/3 Glp1r^−/− SNAP/FLAG-hGLP1R^A316T cells. As to the kind of experiment: Lysosomal inhibition assay, surface GLP-1R in INS-1 832/3 cells. Format: cell-based, rat. To be noted: 400 nM, 2 hours; comparable to WT; n = 5; Fig. 7D. On the procedure:
(§1) INS-1 832/3 Glp1r^−/− SNAP/FLAG-hGLP1R^WT or ^A316T cells on coverslips, mouse hGLP1R^−/− islets transduced with pAV-SNAP/FLAG-hGLP1R^WT or ^A316T adenoviruses, or hGLP1R^A316T/A316T and ^+/+ control islets were incubated for 2 hours ± 400 nM bafilomycin-A1 (Sigma-Aldrich), an established vacuolar H^+-ATPase and lysosomal trafficking inhibitor ([98]), in complete medium. Cells and transduced hGLP1R^−/− islets were then labeled with 1 μM SNAP-Surface 549, and hGLP1R^A316T/A316T versus ^+/+ islets were treated with exendin-9–TMR in complete medium at 37°C for 10 min. Cells were washed and fixed in 4% PFA, mounted in Prolong Diamond antifade reagent with DAPI, while islets were loaded onto glass-bottom MatTek dishes in PBS, and images were acquired by confocal microscopy with a Zeiss LSM-780 inverted confocal laser scanning microscope and a 63×/1.4 numerical aperture oil immersion objective from the Imperial College FILM Facility. Images were analyzed using Fiji.

In assay [3] the test system is hGLP1R^−/− mouse islets transduced with SNAP/FLAG-hGLP1R^WT versus ^A316T; islets from hGLP1R^+/+ versus ^A316T/A316T mice. As to the kind of experiment: Lysosomal inhibition assay, surface GLP-1R in mouse islets. Format: cell-based. The conditions noted are these: 400 nM, 2 hours; n = 3 and n = 4; Fig. 7E,F. As for the experimental part: as §1

For exendin-9, the “Basal insulin secretion of A316T islets on exposure to antagonist/inverse agonist” value in assay [1] is “significantly reduced”.

As to `CO/C1=C\C(C)=C\[C@@H](C)[C@@H](O)[C@@H](C)C/C(C)=C/C=C/[C@H](OC)[C@@H]([C@@H](C)[C@@H](O)[C@H](C)[C@@]2(O)C[C@@H](O)[C@H](C)[C@@H](C(C)C)O2)OC1=O` [bafilomycin A1], the “Surface expression levels of GLP-1R A316T after lysosomal inhibition” value in assay [2] is given as “complete recovery of surface expression levels”. In addition, the “Surface GLP-1R A316T after lysosomal inhibition in islets” value in assay [3] was “same effect”.

These data come from article PMC13267291, “In vivo functional profiling and structural characterization of the human GLP1R A316T variant” (Science Advances, 2026).
